Results: patent publication US6849650B2, “Heterocyclic compounds, pharmaceutical compositions comprising same, and methods for inhibiting β-amyloid peptide release and/or its synthesis by use of such compounds” (Athena Neurosciences, Inc., priority 1998, dated 2005)

For COC(=O)C1(Cc2ccccc2)CNC(C(C)NC(=O)Cc2cc(F)cc(F)c2)=N1 (stereo not shown) [Example 5, 2-[1-(3,5-difluorophenylacetamido)ethyl]-4-methoxycarbonyl-4-phenylmethyl-2-imidazoline], the melting point was 158 to 160 °C.
